Reference: patent US8206901B2, “Method for the synthesis of a bifunctional complex” (Nuevolution A/S, priority 2002, dated 2012)

What was measured:
αv/βIII receptor = αv/βIII receptor (Homo sapiens, UniProt P05106+P06756); details: cited from earlier work
[1] = target: T1, integrin αv/βIII receptor (Homo sapiens, UniProt P05106+P06756); experiment: Selection of 25-member split-and-mix library on immobilised integrin αVβ3, PCR, cloning and sequencing (Example 9); assay type: binding; details: after selection; 18 successful sequences
T1 construct: purchased Bachem
Procedure: Maxisorp ELISA wells (NUNC A/S, Denmark) were coated with each 100 μL 2 μg/mL integrin αVβ3 (Bachem) in PBS buffer [2.8 mM NaH2PO4, 7.2 mM Na2HPO4, 0.15 M NaCl, pH 7.2] overnight at 4° C. Then the integrin solution was substituted for 200 μl blocking buffer [TBS, 0.05% Tween 20 (Sigma P-9416), 1% bovine serum albumin (Sigma A-7030), 1 mM MnCl2] which was left on for 1 hour at room temperature. Then the wells were washed 2 times with 250 μl blocking buffer and 5 μl of the encoded library was added to the wells after diluting it 20 times with blocking buffer. Following 2 hours incubation at room temperature the wells were washed with 20×250 μl blocking buffer.
After the final wash the wells were cleared of wash buffer and subsequently inverted and exposed to UV light at 300-350 nm for 30 seconds using a trans-illuminator set at 70% power.
100 μl blocking buffer without Tween-20 was immediately added to each well, the wells were shaken for 30 seconds, and the solutions containing eluted templates were removed for PCR analysis. […]
Individual E. coli clones were picked and transferred to PCR wells containing 50 μl water. Colonies were incubated at 94° C. for 5 minutes and 20 μl was used in a 25 μl PCR reaction with 5 pmol of each TOPO primer M13 forward & M13 reverse (AH365/AH366) and Ready-To-Go PCR beads (Amersham) using PCR program EKO50: 94° C. […]

Sequence of αv/βIII receptor (P06756 31-889 limits assumed): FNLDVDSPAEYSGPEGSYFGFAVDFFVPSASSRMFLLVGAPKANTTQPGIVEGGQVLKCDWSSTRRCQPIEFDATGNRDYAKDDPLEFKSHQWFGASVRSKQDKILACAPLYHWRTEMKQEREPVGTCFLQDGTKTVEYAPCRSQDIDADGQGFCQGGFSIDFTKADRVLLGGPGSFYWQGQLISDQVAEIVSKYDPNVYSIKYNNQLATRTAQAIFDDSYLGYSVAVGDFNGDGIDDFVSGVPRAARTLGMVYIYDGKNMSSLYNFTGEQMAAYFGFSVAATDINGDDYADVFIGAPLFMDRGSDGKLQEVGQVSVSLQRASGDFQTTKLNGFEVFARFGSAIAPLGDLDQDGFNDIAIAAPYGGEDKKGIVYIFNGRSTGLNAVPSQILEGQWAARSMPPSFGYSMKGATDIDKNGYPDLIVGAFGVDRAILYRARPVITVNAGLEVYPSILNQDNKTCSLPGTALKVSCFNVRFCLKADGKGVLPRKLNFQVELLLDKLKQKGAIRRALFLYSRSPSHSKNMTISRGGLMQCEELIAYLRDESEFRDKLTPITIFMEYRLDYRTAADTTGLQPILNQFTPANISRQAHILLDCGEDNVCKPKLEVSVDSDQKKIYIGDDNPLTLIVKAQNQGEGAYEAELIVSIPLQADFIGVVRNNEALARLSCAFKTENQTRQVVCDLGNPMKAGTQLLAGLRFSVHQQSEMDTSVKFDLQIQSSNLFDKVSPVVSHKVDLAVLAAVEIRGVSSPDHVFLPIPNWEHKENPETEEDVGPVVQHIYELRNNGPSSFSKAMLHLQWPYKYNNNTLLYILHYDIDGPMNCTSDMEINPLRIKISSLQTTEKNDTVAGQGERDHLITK
Sequence of αv/βIII receptor (P06756 891-1048 partner limits assumed): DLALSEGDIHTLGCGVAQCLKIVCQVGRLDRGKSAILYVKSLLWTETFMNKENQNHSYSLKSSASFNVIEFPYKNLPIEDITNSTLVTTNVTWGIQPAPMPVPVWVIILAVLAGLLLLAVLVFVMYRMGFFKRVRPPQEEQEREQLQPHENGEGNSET
Sequence of αv/βIII receptor (P05106 27-788): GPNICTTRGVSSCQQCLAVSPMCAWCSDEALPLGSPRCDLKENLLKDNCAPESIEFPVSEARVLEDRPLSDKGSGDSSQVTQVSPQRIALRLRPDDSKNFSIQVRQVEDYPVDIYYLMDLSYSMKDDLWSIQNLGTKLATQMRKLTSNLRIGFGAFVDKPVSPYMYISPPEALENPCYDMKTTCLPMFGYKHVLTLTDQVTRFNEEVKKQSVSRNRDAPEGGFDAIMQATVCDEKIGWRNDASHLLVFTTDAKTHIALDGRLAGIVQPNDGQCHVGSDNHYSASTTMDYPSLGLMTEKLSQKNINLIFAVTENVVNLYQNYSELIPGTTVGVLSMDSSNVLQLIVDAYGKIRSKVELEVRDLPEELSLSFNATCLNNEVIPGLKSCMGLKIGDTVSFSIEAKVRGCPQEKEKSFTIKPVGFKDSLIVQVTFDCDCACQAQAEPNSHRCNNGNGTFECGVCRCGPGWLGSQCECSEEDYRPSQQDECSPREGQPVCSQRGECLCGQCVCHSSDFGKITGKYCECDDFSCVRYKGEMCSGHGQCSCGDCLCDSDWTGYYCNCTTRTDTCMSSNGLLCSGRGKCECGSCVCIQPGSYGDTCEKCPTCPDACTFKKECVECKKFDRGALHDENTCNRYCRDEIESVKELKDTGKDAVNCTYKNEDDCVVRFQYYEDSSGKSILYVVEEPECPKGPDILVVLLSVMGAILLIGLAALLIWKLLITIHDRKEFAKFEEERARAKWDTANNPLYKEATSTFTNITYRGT
T1 sequence (P06756 31-889 limits assumed): as the sequence (P06756 31-889 limits assumed) above
T1 sequence (P06756 891-1048 partner limits assumed): as the sequence (P06756 891-1048 partner limits assumed) above
T1 sequence (P05106 27-788): as the sequence (P05106 27-788) above

In the case of `O=C(O)CC(NC(=O)CNC(=O)CCCc1ccc2c(n1)NCCC2)C(=O)O` (stereo not drawn) [Feuston 5], the “affinity for αv/βIII compared to the RGD-tripeptide” value (αv/βIII receptor) is listed as “ten-fold increased affinity”, the Kd (αv/βIII receptor; αv/βIII) is listed as 111 nM and the “output sequences identifying the exact ligand” value [1] is listed as 16 out of 18.
